Columns and labels:
circulating blood cells = format: in vivo, Balb/c mice; details: 0.1, 1 and 5 mg i.v.; cytospins of whole blood at 15 min, 1 h, 6 h and 24 h
Procedure: (§1) All experiments in mice were performed in accordance with relevant institutional guidelines and regulations, and were subject to a protocol approved by the Animal Ethics Committee, the University of Auckland. Different amounts (0.1 mg, 1 mg and 5 mg) of a TAMRA-labelled D-isomeric form of Xentry (TAMRA-lclrpvg; Peptide 2.0 Inc., Chantilly, VA) were dissolved in 50 μl of PBS. […] Cardiac blood was collected into an EDTA tube and cytospun onto slides, and viewed by fluorescence microscopy to determine uptake of the peptide by blood cells. The major organs of each mouse was harvested and dissected in half to be either homogenized or placed in a cryotube with isopentane, frozen and sectioned. For homogenization, the organs were weighed and then homogenized in 500 μl of PBS in an Omni bead-ruptor homogenizer (OMNI International, Kennesaw, GA). Equal volumes of homogenate and 8 M guanidinium chloride were mixed, and then centrifuged at 12,000 g for 5 min, and fluorescence of the supernatant measured in a fluorescence plate reader.
Supplementary Figure 6. […] A sample of […]
cardiac blood was collected from mice injected with 0.1, 1 and 5 mg of TAMRA-labelled Xentry at 4 different time points, and cytospun onto a slide. The blood sample was examined by brightfield and fluorescence microscopy. […]

[1] = test system: K562 cells transfected to express syndecan-4; assay: Uptake of Xentry by K562 cells engineered to express syndecan-4; format: cell-based; details: TAMRA-lclrpvg 20 μM, 3 h, 48 h after transfection with pCMV-hygro-SDC4
Procedure: Cell nuclei were stained blue with DAPI. […] Scale bar, 50 μm.
The media was removed and replaced with RPMI without serum. Four micrograms of the syndecan-4 plasmid pCMV-hygro-SDC4 and 4 μl of polymag transfection reagent (OZ Biosciences, Marseille, France) were mixed in 100 μl of Opti-MEM media. The mixture was incubated for 20 min at room temperature, added to the cells, and the tissue culture plate placed onto a magnetic plate for 20 min. The media was removed and replaced with RPMI media containing 10% FCS, followed by incubation for 48 h at 37°C and 5% CO2, with a media change after 24 h. TAMRA-labelled Xentry (TAMRA-lclrpvg) was added to the transfectants 48 h following transfection to a final concentration of 20 μM, and the cells were incubated for 3 h. The cells were removed from the plate, washed thrice with PBS, cytospun onto a slide, and fixed with 4% formaldehyde for 15 min. They were washed with PBS and DAPI added for visualization of cell nuclei. […] The cells were then examined using a Nikon E600 fluorescent microscope, and photographed.

[2] = format: in vivo, Balb/c mice
Procedure: as §1
Supplementary Figure 5 (cont)
Heart Lung Liver Spleen Pancreas Kidney Stomach Intestine Colon Muscle Brain […]
Supplementary Figure 5. Biodistribution of TAMRA-labelled Xentry intravenously injected into mice. (a) Mice were intravenously injected with 0.1 mg and 5 mg of TAMRA-labelled Xentry and the fluorescence of organ homogenates was measured 15 min, 1, 6, and 24 h later. Results are presented as the mean + SD (n = 3). Refer to Figure 4d for the fluorescence of organ homogenates of mice injected with 1 mg of Xentry. (b) Fluorescence of sections of the major organs of mice intravenously injected with 5 mg of TAMRA-labelled Xentry. The liver sections for the 15 min time-point […]

## TAMRA-lclrpvg [TAMRA-labelled Xentry, TAMRA-labelled D-isomeric form of Xentry]
Circulating blood cells
  Uptake by circulating blood cells: not taken up and sequestered
[1]
  Uptake by syndecan-4-expressing K562 transfectants: increased uptake
[2]; 0.1, 1 and 5 mg i.v., organ homogenates
  Uptake by heart, pancreas, brain relative to other tissues: less well
[2]; 0.1, 1 and 5 mg i.v., lungs, liver, spleen, kidneys, stomach, small intestine, colon, muscle, homogenate fluorescence, n = 3
  Time to uptake by major tissues (organ homogenates): ≤ 15 min
[2]; i.v., 24 h, organ homogenates
  Level in most organs, except liver and kidneys, by 24 h: only low levels
[2]; i.v., fluorescence of organ sections
  Distribution within tissue sections: concentrated within particular regions of certain tissues, such as the epithelia lining the colon, stomach and bronchial airways

From article PMC3627194, “Xentry, a new class of cell-penetrating peptide uniquely equipped for delivery of drugs” (Scientific Reports, 2013)
